Data: paper PMC9919437 (Molecules, 2023)
Read-outs that look alike come from different tables or passages of the source.

Experiments:
[1] = biological target: T1, BC2L-C-Nt (N-terminal lectin domain of BC2L-C) (Burkholderia cenocepacia, UniProt B4EH86); assay: biochemical; assay type: binding
[2] = biological target: T1, BC2L-C-Nt (N-terminal lectin domain of BC2L-C); conditions: cited from earlier work
BC2L-C-Nt = assay: STD-NMR competition experiment with α-methyl fucoside; assay type: binding, Burkholderia cenocepacia; conditions: 1 mol equiv α-methyl fucoside; for 4 aromatic protons only
Protocol: A great deal of additional information can be gained from STD competition assays, where a known binder is added to a protein–ligand mixture with the aim of displacing the ligand under study and confirm that they are both competing for the same binding site. […] The same competition experiment was performed for 4 in the presence of α-methyl fucoside. The reduction in STD intensity after the addition of the monosaccharide can be evaluated only for the aromatic protons, since the signals of galactose and methyl fucoside overlap in the region 3.8–3.6 ppm, and can be estimated around 60% (Table S2).
NMR experiments were performed on 400 MHz Bruker Avance III and 600 MHz Bruker Avance spectrometers at 298 K in deuterated or aqueous phosphate buffer at pH 7.4. When required, water suppression was achieved by excitation sculpting sequence from standard Bruker library. STD NMR experiments were performed using WATERGATE 3-9-19 pulse sequence for water suppression. […] Intensities of all STD effects (absolute STD) were calculated by division through integrals over the respective signals in STD reference spectra. The different signal intensities of the individual protons are best analyzed from the integral values in the reference and STD spectra, respectively. […]

T1 sequence (B4EH86 1-132 limits assumed): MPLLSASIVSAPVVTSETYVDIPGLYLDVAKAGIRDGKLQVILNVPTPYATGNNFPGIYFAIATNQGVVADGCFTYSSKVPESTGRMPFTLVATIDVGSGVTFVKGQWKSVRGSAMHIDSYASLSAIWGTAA

CC(=O)N[C@H]1[C@H](O[C@H]2[C@@H](O)[C@@H](CO)OC(O)[C@@H]2O)O[C@H](CO)[C@@H](O)[C@@H]1O[C@@H]1O[C@H](CO)[C@H](O)[C@H](O)[C@H]1O[C@@H]1O[C@@H](C)[C@@H](O)[C@@H](O)[C@@H]1O (some centres unmarked) [H-type 1 tetrasaccharide, Fucα1-2Galβ1-3GlcNAcβ1-3Gal, reference compound]
n (stoichiometry) [1]: 0.81
Kd ([1]; pH 7, read-out: KD): 56 ± 4.5 µM

C[C@@H]1O[C@H](C#Cc2ccc(C(C)(C)CN)cc2)[C@@H](O)[C@H](O)[C@@H]1O [compound 1]
Kd [2]: 290 µM

C[C@@H]1O[C@H](NC(=O)c2ccc(-c3cccc(CN)c3)o2)[C@@H](O)[C@H](O)[C@@H]1O [compound 3]
times less potent than the H-type 1 tetrasaccharide [1]: 3
decrease of STD signal of the ligand after addition of α-methyl fucoside (BC2L-C-Nt): 20–26%

NCc1cccc(-c2ccc(C(=O)NC3OC(CO)C(O)C(O)C3O)o2)c1 (centres unmarked) [compound 4]
factor by which activity is lower than that of 3 [1]: 2.5
Kd ([1]; KD): 390 µM
decrease of STD signal of the ligand after addition of α-methyl fucoside (BC2L-C-Nt): around 60%
